Series [1] concerns the target Matrix metalloproteinase-9 (Homo sapiens, UniProt P14780). The series can be described thus: Inhibition of MMP9 (unknown origin) by fluorescence-based FRET assay.
In series [2] the test system is Rattus norvegicus. The series can be described thus: Toxicity in Wistar rat assessed as food consumption at 100 mg/kg, po bid for 28 days. Format: organism-based. Also noted: dose 100 mg/kg, route oral. To be noted: in vivo, 672 h.
The next series addresses Collagenase 3 (Homo sapiens, UniProt P45452). The experiment in a line: Inhibition of MMP13 (unknown origin) by fluorescence-based FRET assay.
The target in the next series is T1, Matrilysin (Homo sapiens, UniProt P09237).
T1 sequence (P09237 whole entry): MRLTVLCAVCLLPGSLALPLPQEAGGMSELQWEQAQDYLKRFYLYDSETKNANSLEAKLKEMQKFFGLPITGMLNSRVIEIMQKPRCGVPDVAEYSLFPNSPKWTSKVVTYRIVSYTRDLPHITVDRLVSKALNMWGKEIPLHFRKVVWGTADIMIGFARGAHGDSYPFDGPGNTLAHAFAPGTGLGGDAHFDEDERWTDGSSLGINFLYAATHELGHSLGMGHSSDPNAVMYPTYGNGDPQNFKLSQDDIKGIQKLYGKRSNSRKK
The experiment in a line: Inhibition of MMP7 (unknown origin) by fluorescence-based FRET assay.

The subject of series [3] is Rattus norvegicus. The experiment in a line: Toxicity in Wistar rat assessed as total bilirubin at 100 mg/kg, po bid for 28 days (reference value: 0.14 +/- 0.01 mg/dL). Also on record: dose 100 mg/kg, route oral. To be noted: in vivo, 672 h. Format: organism-based.
In a further series the target is Neutrophil collagenase (Homo sapiens, UniProt P22894). The series can be described thus: Inhibition of MMP8 (unknown origin) by fluorescence-based FRET assay.
The subject of a further series is Blood. The series can be described thus: Antiinflammatory activity in human whole blood assessed as inhibition of LPS-induced TNFalpha secretion by ELISA. Format: functional, tissue-based. In general terms: In an ELISA, binding on a coated surface is turned into a signal by an enzyme label.
Series [4] concerns Rattus norvegicus. The series can be described thus: Elimination rate constant in Wistar rat at 5 mg/kg, po. The format is ADME, organism-based. Also on record: dose 5 mg/kg, route oral. To be noted: in vivo.
Series [5] is described as follows: AUC in Wistar rat at 5 mg/kg, po. Format: ADME, organism-based. Also on record: dose 5 mg/kg, route oral. To be noted: plasma.
The test system of series [6] is Rattus norvegicus. The series can be described thus: Toxicity in Wistar rat assessed as alanine aminotransferase at 100 mg/kg, po bid for 28 days (reference value: 20.78 +/- 1.31 U/L). The format is organism-based. Also on record: dose 100 mg/kg, route oral. To be noted: in vivo, 672 h.
Series [7] has as its target Disintegrin and metalloproteinase domain-containing protein 17 (Homo sapiens, UniProt P78536). The experiment in a line: Ratio of IC50 for human catalytic domain of TACE to IC50 for MMP13 (unknown origin).
The test system of series [8] is Rattus norvegicus. The experiment in a line: Toxicity in Wistar rat assessed as alkaline phosphatase at 100 mg/kg, po bid for 28 days (reference value: 134.66 +/- 5.3 U/L). The format is organism-based. Also noted: dose 100 mg/kg, route oral. To be noted: in vivo, 672 h.
For series [9], the system named is Rattus norvegicus. The series can be described thus: Half life in Wistar rat at 5 mg/kg, po. The format is ADME, organism-based. Also noted: dose 5 mg/kg, route oral. To be noted: in vivo.
Series [10] relates to Rattus norvegicus. The experiment in a line: Toxicity in Wistar rat assessed as relative kidney weight at 100 mg/kg, po bid for 28 days (reference value: 0.821 +/- 0.03 %). Format: organism-based. Also on record: dose 100 mg/kg, route oral. To be noted: in vivo, 672 h.

The structures appear in SMILES notation.

Sequence of Neutrophil collagenase (P22894 whole entry): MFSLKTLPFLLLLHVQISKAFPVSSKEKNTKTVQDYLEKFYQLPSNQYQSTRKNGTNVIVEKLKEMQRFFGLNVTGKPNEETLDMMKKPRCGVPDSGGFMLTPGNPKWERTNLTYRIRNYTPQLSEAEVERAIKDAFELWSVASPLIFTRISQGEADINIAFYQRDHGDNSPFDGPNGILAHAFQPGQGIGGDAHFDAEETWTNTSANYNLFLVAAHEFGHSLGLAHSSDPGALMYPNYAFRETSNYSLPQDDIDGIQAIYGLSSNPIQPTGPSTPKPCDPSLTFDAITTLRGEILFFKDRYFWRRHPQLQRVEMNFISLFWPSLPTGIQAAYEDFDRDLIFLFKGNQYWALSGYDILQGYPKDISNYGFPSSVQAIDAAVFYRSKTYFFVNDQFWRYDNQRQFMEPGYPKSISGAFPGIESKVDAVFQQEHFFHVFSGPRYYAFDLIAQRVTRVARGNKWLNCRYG
Sequence of Disintegrin and metalloproteinase domain-containing protein 17 (P78536 whole entry, the tested form may be a part): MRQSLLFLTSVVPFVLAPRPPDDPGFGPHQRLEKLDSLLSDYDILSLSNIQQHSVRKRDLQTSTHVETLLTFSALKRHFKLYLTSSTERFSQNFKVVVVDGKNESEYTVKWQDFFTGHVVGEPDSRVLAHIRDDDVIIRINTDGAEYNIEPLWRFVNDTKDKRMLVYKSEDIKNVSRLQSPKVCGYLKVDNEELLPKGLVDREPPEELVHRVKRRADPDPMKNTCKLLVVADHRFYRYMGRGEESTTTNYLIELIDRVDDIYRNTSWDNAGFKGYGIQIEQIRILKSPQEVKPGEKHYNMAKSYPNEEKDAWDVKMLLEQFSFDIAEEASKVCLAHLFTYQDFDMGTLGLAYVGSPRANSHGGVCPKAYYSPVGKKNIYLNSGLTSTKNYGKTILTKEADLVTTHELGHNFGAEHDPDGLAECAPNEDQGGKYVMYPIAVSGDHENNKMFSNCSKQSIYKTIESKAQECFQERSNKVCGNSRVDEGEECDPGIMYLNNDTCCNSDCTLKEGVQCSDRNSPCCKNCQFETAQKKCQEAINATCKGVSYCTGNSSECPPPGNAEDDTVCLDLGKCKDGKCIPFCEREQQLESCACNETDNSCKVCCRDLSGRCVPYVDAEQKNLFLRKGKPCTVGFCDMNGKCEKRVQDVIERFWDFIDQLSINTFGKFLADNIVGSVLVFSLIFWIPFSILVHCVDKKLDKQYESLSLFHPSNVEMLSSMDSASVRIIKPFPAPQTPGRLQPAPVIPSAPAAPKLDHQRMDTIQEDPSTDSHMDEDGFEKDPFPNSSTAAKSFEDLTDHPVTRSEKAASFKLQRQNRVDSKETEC
Sequence of Matrix metalloproteinase-9 (P14780 whole entry): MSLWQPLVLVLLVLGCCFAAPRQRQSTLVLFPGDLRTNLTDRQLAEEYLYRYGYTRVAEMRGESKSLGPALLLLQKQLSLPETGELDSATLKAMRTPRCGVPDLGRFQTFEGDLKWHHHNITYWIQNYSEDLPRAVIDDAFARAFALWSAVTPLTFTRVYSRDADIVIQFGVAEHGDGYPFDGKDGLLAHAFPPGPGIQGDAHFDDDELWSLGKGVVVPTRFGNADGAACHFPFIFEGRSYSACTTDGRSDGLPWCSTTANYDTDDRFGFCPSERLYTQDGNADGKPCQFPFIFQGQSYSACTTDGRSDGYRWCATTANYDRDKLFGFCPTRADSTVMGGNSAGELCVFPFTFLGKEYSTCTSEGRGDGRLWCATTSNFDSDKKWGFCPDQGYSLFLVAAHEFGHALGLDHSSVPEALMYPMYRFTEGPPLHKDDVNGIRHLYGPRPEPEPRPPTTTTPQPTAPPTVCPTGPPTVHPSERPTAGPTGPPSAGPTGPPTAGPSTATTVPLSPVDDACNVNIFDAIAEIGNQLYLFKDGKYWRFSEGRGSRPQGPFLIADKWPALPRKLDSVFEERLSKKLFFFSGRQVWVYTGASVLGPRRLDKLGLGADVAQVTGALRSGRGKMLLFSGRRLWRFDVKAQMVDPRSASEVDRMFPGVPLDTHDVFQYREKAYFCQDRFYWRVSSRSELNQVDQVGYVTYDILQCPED

Broadly, the IC50 is the midpoint of a concentration-inhibition curve. A word on the AUC: it is concentration integrated over time. Lower therefore signals low exposure. In the case of `COCCc1cc(COc2ccc([C@]3(N)CCN([C@H](CC(C)C)C(=O)NO)C3=O)cc2)c2ccccc2n1`, the 50% inhibitory concentration (IC50) in [1] is 1.21 µM; on Collagenase 3 it was 1.11 µM; against Matrilysin, 1.01 µM; at Neutrophil collagenase, 1 µM; in the series on Blood, 0.013 µM. The Activity entry in the series with Rattus norvegicus [2] is “Non-toxic”; with Rattus norvegicus [3] it was 0.17 mg/dL; with Rattus norvegicus [6] it was 21.04 U/L; in the series with Rattus norvegicus [8] it was 121.2 U/L; in the series with Rattus norvegicus [10] it was 0.878%. The same compound displayed a Kel in the series with Rattus norvegicus [4] of 0.44 h⁻¹. The exposure (AUC) in [5] is 11.8 µg·h/mL. Further, the Ratio IC50 in [7] is more than 500. In addition, the t1/2 in the series with Rattus norvegicus [9] stood at 3.81 h.

(Values after ChEMBL document CHEMBL3217463, “Design, synthesis and biological evaluation of -lactam hydroxamate based TACE inhibitors” (Medchemcomm, 2011).)
